Ten compounds from ChEMBL document CHEMBL5352455, “Discovery of novel N-acylpyrazoles as potent and selective thrombin inhibitors” (Eur J Med Chem, 2023) can be followed below.

Data set [1] in a line: in vitro. The settings on record: CD-1, mouse, plasma.
Description: Stability in CD-1 mouse plasma assessed as half life
A short description of data set [2]: in vitro. The conditions noted are these: human, plasma.
Description: Stability in human plasma assessed as half life
Data set [3] can be described thus: Half life in CD-1 mouse at 0.5 mg/kg, iv measured after 24 hrs by LC-MS analysis. It is filed as ADME, organism-based. The settings on record: in vivo.
The nature of data set [4]: AUC in CD-1 mouse at 0.5 mg/kg, iv measured after 24 hrs by LC-MS analysis. Format: ADME, organism-based. Set-up: time 24 hrs, dose 0.5 mg/kg, route iv. The settings on record: in vivo.
Data set [5] in a line: AUC in CD-1 mouse at 5 mg/kg, po measured after 24 hrs by LC-MS analysis. The settings on record: in vivo. Details: dose 5 mg/kg, time 24 hrs, route po. It is filed as ADME, organism-based.
The nature of data set [6]: Cmax in CD-1 mouse at 5 mg/kg, po measured after 24 hrs by LC-MS analysis. It is filed as ADME, organism-based. Details: time 24 hrs, dose 5 mg/kg, route po. The conditions noted are these: in vivo.
The nature of data set [7]: Tmax in CD-1 mouse at 5 mg/kg, po measured after 24 hrs by LC-MS analysis. It is filed as ADME, organism-based. The settings on record: in vivo.
The nature of data set [8]: Half life in CD-1 mouse at 5 mg/kg, po measured after 24 hrs by LC-MS analysis. It is filed as ADME, organism-based. The conditions noted are these: in vivo.
Data set [9] in a line: Oral bioavailability in CD-1 mouse at 5 mg/kg measured after 24 hrs by LC-MS analysis. It is filed as ADME, organism-based. The settings on record: in vivo.
Data set [10] in a line: in vitro. The conditions noted are these: Sprague-Dawley, rat, plasma.
Description: Stability in Sprague-Dawley rat plasma assessed as half life

Usually half-life stands for the time needed for the level to fall by half in the phase considered. Compound `COc1ccccc1C(=O)n1nc(C2CCOCC2)cc1NCc1ccc(Cl)s1` displayed a half-life in “in vitro [1]” of 160 min.

The compound `CC(C)(C)C(=O)n1nc(C2CCCNC2)cc1NCc1ccc(Cl)s1` (stereo unspecified) showed a half-life in “in vitro [1]” of 910 min.

`CC(C)(C)C(=O)n1nc(-c2cccnn2)cc1NCc1ccc(Cl)s1` registered a half-life in the data set “in vitro [2]” of 51 min.

One may read the AUC as the area under the concentration-time curve, a measure of exposure. A higher AUC goes with more exposure. What is called Cmax is the peak of the concentration-time curve. Broadly, the Tmax is the time from dosing to the highest level. The term bioavailability denotes the share of a dose that reaches the circulation, judged against a reference dose that is usually intravenous. Lower therefore signals little systemic uptake. As for `CC(C)(C)C(=O)n1nc(-c2ccc[nH]c2=O)cc1NCc1ccc(Cl)s1`, the figures for the half-life (in [3]; in [8]; in “in vitro [1]”) were 42 min, 354 min and 350 min, respectively. Also, the exposure (AUC) at 24 h in data set [4] is 300 ng·h/mL; in data set [5] it was 713 ng·h/mL. The peak level in [6] (Cmax) was 127 ng/mL. Moreover, in [7], the Tmax worked out at 42 min. For the same compound, the bioavailability in data set [9] worked out at 22.8%.

`COc1ccccc1C(=O)n1nc(-c2ccccn2)nc1NCc1ccc(Cl)s1`: the half-life was determined as 4.1 min in the data set “in vitro [1]”, 1.5 min in “in vitro [10]” and 30 min in “in vitro [2]”.

`O=C(c1ccsc1)n1nc(-c2ccccc2F)nc1NCc1cccs1` returned a half-life in “in vitro [2]” of 69 min.

In the case of `C[C@@H]1CNc2c(cccc2S(=O)(=O)N[C@@H](CCCNC(=N)N)C(=O)N2CC[C@@H](C)C[C@@H]2C(=O)O)C1`, the half-life in “in vitro [1]”, in “in vitro [10]” and in the data set “in vitro [2]” was above 120 min throughout.

In the case of `COc1ccccc1C(=O)n1nc(-c2ccccc2F)nc1NCc1cccs1`, in the data set “in vitro [2]”, the half-life was found to be 48 min.

In “in vitro [1]”, `COc1ccccc1C(=O)n1nc(C2CCNCC2)cc1NCc1ccc(Cl)s1` yielded a half-life of 43 min.

The compound `CC(C)(CO)C(=O)n1nc(C2CCNCC2)c(F)c1NCc1ccc(Cl)s1` came in with a half-life in “in vitro [1]” of 44 min.
